The values that follow come from patent publication US10077238B2, “Small molecule LFA-1 inhibitors” (ALLOCYTE PHARMACEUTICALS AG, priority 2014, dated 2018).

Holding throughout (assay type): cell-based
Assay [1] has as its target T1, LFA-1 (Homo sapiens, UniProt P20701).
T1 construct: endogenous in cells; host or cells: Jurkat cells
Briefly: V well cell adhesion assay, LFA-1-mediated Jurkat cell binding to ICAM-1 (LFA-1 adhesion). Particulars: Jurkat cells on ICAM-1/Fc; mean ±SD of ≥3 independent experiments in triplicates or single experiments in triplicates. The procedure: Cell-Based Assay to Determine the Effect of the Compounds on LFA-1-Mediated Cell Adhesion (LFA-1 Adhesion)
Purpose of the Assay: The V well cell adhesion assay measures the ability of the compounds to interfere with LFA-1-mediated binding to ICAM-1 at cellular level. The assay has been successfully used in the past to identify and characterize small molecules LFA-1 inhibitors.
Experimental Protocol: The adhesion assay was performed in Vbottom 96-well plates as described previously [Weitz-Schmidt 2012]. Briefly, the plates were coated with anti-human IgG mAb diluted in coating buffer (20 mM Tris containing 150 mM NaCl, pH 8) (1 μg/mL) and incubated overnight at 4° C. The plates were flicked out and blocked with blocking buffer (50 mM Tris base, 150 mM NaCl, 1.5% BSA (w/v), pH 7.2) at 37° C. for 90 min. Then human recombinant ICAM-1/Fc (R&D Systems) diluted in coating buffer (0.3 μg/mL) was added to each well. The plates were incubated at 37° C. for 90 min and washed with binding buffer (50 mM Tris base, 150 mM NaCl, 1.5% BSA (w/v), 2 mM MgCl2, 2 mM MnCl2, 5 mM D-glucose monohydrate, pH 7.2-7.4) to remove unbound ligand.
Jurkat cells were cultured under standard conditions as recommended by the American Type Culture collection (ATCC). The cells were fluorescently labelled with BCECF-AM in PBS (1 μg/mL) at 37° C. for 20 min in the dark, centrifuged and washed with PBS. The test compounds were dissolved in DMSO at 10 mM and serially pre-diluted in DMSO (100%) to avoid precipitation, before performing final dilution steps in binding buffer.
The labelled Jurkat cells were re-suspended in binding buffer and test compounds or solvent control were added. The DMSO concentration was kept constant in all samples (1% DMSO as final assay concentration). After 40 min at 37° C. (LFA-1 activation and compound pre-incubation step) the cell suspension (3×10^5 cells/mL in binding buffer) was pipetted up and down and transferred to the ligand-coated microtiter V well plates (30 000 cells/well). The plates were centrifuged for 4 min at room temperature (rt) at 1000 rpm (Centrifuge Eppendorf 5810 R), setting the brake off Non-adherent cells that accumulated in the center of the Vbottom were quantified using a fluorescence reader with the filter sets allowing excitation at 485 nm and quantification of emission at 535 nm. The determination of the half maximal inhibitory concentration (IC50) of the compounds was calculated using the software GraphPad Prism 6.

The next assay addresses T2, VLA-4 (Homo sapiens, UniProt P05556+P13612).
T2 construct: endogenous in cells; host or cells: Jurkat cells
As to the kind of experiment: V well cell adhesion assay, VLA-4-mediated Jurkat cell binding to VCAM-1 (VLA-4 adhesion). Particulars: Jurkat cells on VCAM-1 Fc; single experiments run in triplicates. The procedure: Cell-Based Assay to Determine the Selectivity of the Compounds Over the Integrin VLA-4 (VLA-4 Adhesion)
Purpose of the Assay: This V well cell adhesion assay measures the effect of the compounds on VLA-4-mediated Jurkat cell binding to VCAM-1. The assay has been successfully used in the past to determine the selectivity of small molecule LFA-1 inhibitors over the integrin VLA-4.
Experimental Protocol: The adhesion assay was performed as described above for the Jurkat/ICAM-1 V well adhesion assay. Briefly, plates were coated with anti-human IgG mAb and blocked with BSA as described above. Instead of ICAM-1, recombinant human VCAM-1/CD106 Fc chimera (R&D Systems) was coated onto the plates (0.3 μg/mL in coating buffer). After incubation, labelled Jurkat cells in binding buffer were transferred to the wells (20,000 cells/well). The plates were immediately centrifuged at 1000 rpm for 4 min at rt (Centrifuge Eppendorf 5810 R) setting the brakeoff. Non-adherent cells were quantified in the tip of the Vbottom well using a fluorescence reader. IC50 values of the compounds were calculated using the software GraphPad Prism 6.

Assay [2] addresses T1, LFA-1. Briefly: Flow cytometry, mAb R7.1 binding to LFA-1 expressed on leukocytes. Particulars: Jurkat cells or human PBMCs, values of independent experiments; for inhibition at 1 µM: Jurkat. Here is the method:
Measurement of mAb R7.1 binding to LFA-1 (mAb R7.1 binding)
Purpose of the Assay: This flow cytometry assay determines the effect of the compounds on the binding of the anti-LFA-1 mAb R7.1 to LFA-1 expressed on leukocytes.
Experimental Protocol: Jurkat cells or human peripheral blood mononuclear cells (PBMCs) were resuspended in assay buffer (50 mM Tris, 150 mM NaCl, 2 mM MgCl2, 1.5% BSA and 5 mM D-glucose monohydrate, pH7.2) at 2×10^6 cells/mL and 500 μL of this cell suspension (1×10^6 cells) were transferred into polypropylene tubes containing the test compounds diluted in 500 μL assay buffer. The samples were pre-incubated at 37° C. for 40 min, and centrifuged. The supernatants were removed and FITC-labelled anti-LFA-1 mAb R7.1 and PE-labeled anti-LFA-1 mAb TS2/4 (mAb TS2/4 is not affected by alpha I allosteric inhibitor binding to LFA-1) or appropriate isotype controls were added directly to each cell pellet. The pellets were then gently pipetted up and down and incubated on ice for 30 min in the dark. After the incubation step the cells were washed twice with PBS and resuspended in PBS.
Antibody binding was analyzed by flow cytometry. Mean fluorescence intensities (MFI) were calculated using the CellQuest software. The values are expressed as % of solvent control (solvent control=100% binding).
On the technique in general: In flow cytometry, cells or beads pass a laser one at a time.

The target of assay [3] is T1, LFA-1. As to the kind of experiment: Flow cytometry, mAb MEM148 binding to LFA-1 expressed on leukocytes. Particulars: solvent ctrl = 1, Jurkat cells or PBMCs. Here is the method:
Quantification of mAb MEM148 Binding to LFA-1 (mAb MEM148 Binding)
Purpose of the Assay: This flow cytometry assay determines the effect of the compounds on the binding of the conformation-sensitive anti-LFA-1 mAb MEM148 to LFA-1 expressed on leukocytes. The mAb MEM148 detects an epitope which becomes exposed in activated LFA-1 [Yuki 2012]
Experimental Protocol: The assay is performed as the flow cytometry assay described above.
Briefly, Jurkat cells or PBMCs in assay buffer (50 mM Tris, 150 mM NaCl, 1 mM CaCl2, 1 mM MgCl2, 5 mM Glucose, 1.5% BSA, pH 7.3) were pre-incubated with the compounds and appropriate positive controls for 40 min at rt. After incubation, the cell-suspension was centrifuged, the supernatant discarded and PE-labelled anti-LFA-1 mAb MEM148 was directly added to the pellets. After pipetting up and down, the tubes were incubated for 30 min. at 37° C. in the dark. The pellet was washed twice with 1 mL PBS and resuspended in PBS. Antibody binding was quantified by flow cytometry. Mean fluorescence intensities (MFI) were calculated using the CellQuest software.

Values joined by “and” are separate entries in the source; they are usually repeats but may differ in a detail not shown here. Equal values may be shown once. Bounds are passed on as bounds.

T2 sequence (P13612 34-1032): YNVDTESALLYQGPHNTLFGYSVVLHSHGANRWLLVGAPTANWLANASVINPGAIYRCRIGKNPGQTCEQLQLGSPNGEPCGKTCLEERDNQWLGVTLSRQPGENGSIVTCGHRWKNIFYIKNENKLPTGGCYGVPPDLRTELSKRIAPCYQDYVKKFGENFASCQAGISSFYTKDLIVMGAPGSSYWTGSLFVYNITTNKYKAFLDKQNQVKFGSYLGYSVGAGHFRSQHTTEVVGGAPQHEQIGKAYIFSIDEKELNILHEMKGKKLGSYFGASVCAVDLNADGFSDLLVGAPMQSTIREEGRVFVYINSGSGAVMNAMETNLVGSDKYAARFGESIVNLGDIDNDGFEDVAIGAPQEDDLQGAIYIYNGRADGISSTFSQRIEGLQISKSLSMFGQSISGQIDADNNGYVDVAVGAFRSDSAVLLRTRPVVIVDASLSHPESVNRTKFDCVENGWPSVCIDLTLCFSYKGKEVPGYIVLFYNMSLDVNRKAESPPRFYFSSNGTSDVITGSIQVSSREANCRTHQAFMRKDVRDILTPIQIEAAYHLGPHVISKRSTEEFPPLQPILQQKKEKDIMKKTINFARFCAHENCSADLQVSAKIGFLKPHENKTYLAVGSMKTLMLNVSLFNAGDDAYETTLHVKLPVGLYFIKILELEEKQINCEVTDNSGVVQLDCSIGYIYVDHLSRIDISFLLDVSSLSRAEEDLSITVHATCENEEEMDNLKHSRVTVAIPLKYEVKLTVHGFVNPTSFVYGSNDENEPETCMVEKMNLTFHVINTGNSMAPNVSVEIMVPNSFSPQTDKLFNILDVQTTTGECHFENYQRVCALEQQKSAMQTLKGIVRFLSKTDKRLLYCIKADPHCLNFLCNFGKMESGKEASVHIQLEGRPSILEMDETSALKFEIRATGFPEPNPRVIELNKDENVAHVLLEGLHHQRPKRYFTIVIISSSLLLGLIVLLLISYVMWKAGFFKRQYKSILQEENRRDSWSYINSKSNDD
T2 sequence (P05556 21-798): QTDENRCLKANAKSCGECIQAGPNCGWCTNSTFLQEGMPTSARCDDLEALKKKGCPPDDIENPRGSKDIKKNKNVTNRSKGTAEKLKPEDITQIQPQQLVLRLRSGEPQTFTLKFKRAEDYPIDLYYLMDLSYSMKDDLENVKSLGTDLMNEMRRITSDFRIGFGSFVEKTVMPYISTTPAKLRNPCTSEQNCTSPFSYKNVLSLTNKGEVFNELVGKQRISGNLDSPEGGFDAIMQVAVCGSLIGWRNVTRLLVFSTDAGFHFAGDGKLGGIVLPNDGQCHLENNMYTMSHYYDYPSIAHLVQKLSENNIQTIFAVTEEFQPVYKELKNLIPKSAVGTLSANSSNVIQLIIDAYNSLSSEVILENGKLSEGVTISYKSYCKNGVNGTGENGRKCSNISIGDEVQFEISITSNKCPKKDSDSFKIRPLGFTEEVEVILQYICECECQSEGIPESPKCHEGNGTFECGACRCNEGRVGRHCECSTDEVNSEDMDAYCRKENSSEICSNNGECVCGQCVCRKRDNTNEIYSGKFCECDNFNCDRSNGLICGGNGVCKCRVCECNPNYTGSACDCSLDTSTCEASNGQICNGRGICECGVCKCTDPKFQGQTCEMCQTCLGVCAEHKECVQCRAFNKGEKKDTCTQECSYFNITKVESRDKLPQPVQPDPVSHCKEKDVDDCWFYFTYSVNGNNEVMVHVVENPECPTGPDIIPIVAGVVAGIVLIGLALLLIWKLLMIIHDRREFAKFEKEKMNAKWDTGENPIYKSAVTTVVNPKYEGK
T1 sequence (P20701 26-1170): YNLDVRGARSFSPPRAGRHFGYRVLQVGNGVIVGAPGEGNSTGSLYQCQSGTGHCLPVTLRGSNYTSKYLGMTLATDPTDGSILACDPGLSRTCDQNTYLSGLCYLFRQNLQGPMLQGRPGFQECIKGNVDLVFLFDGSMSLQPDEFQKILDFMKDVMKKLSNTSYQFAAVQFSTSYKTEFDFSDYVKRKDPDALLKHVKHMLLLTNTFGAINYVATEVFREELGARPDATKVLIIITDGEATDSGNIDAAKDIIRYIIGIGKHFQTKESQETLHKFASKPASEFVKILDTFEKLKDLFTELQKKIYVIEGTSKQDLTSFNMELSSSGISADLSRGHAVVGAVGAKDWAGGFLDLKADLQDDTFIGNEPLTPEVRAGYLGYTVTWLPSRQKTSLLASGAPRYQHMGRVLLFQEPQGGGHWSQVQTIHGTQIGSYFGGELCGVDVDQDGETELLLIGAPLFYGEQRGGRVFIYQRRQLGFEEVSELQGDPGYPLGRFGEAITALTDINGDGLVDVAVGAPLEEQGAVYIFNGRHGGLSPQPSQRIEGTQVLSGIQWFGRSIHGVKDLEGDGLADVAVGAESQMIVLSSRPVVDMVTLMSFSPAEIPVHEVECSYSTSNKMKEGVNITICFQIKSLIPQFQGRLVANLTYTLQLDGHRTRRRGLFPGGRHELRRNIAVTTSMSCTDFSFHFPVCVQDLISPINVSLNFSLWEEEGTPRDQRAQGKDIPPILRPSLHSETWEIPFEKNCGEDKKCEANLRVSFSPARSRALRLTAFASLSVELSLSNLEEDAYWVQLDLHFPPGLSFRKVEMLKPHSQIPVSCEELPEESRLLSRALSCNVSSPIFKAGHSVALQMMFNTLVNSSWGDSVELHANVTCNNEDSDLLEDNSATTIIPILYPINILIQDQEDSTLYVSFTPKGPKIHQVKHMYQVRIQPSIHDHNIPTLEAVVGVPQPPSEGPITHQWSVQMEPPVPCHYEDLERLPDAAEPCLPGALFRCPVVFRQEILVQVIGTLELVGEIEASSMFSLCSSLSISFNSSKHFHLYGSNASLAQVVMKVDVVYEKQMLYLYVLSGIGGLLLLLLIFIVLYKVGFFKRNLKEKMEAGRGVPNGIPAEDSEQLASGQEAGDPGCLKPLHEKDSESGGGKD
T1 sequence (P05107 23-769 partner): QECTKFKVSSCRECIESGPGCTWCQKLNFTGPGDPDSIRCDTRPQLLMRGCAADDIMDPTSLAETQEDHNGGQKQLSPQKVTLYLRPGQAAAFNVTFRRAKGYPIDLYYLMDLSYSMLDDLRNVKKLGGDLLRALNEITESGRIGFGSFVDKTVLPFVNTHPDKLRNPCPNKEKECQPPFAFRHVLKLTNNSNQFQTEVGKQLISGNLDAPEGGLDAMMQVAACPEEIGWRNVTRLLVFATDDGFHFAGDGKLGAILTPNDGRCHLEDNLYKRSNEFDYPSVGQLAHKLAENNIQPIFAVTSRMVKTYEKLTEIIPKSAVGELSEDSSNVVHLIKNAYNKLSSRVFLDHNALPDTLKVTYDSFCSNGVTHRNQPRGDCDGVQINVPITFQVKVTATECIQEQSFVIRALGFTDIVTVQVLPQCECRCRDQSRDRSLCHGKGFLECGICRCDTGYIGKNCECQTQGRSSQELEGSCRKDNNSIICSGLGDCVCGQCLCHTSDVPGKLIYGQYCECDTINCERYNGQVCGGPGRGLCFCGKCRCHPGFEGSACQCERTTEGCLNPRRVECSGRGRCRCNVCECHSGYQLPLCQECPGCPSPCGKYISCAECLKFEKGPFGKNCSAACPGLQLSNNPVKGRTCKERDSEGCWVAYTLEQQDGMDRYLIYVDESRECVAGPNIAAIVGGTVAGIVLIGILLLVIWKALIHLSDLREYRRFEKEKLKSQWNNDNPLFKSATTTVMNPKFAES

Regarding `C[C@]12C(=O)N(c3cc(Cl)cc(Cl)c3)C(=O)[C@H]1C2(c1ccc(C#N)cc1)c1ccc(C#N)cc1` (racemic) [4v (racemate), rac-4-[(1S,5S)-6-(4-Cyanophenyl)-3-(3,5-dichlorophenyl)-1-methyl-2,4-dioxo-3-azabicyclo[3.1.0]hexan-6-yl]benzonitrile], the IC50 was 45 ± 14 nM at LFA-1 [1] and > 10000 nM at VLA-4.
With `C[C@]12C(=O)N(c3cc(Cl)cc(Cl)c3)C(=O)[C@H]1[C@H]2c1ccccc1` (racemic) [4′d (racemate), rac-(1R,5S,6S)-3-(3,5-Dichlorophenyl)-1-methyl-6-phenyl-3-azabicyclo[3.1.0]hexane-2,4-dione], on LFA-1 [1], the IC50 was determined as 1540 ± 646 nM. On LFA-1 [2], this compound yielded an inhibition at 1 µM of 80.5%.
`CCOC(=O)[C@@]1(c2ccc(Br)cc2)[C@@H]2C(=O)N(c3cc(Cl)cc(Cl)c3)C(=O)[C@@]21C` (racemic) [4′j (racemate), rac-Ethyl-(1 S, 5R, 6R)-6-(4-bromophenyl)-3-(3,5-dichlorophenyl)-1-methyl-2,4-dioxo-3-azabicyclo[3.1.0]-hexane-6-carboxylate]: the figures for the IC50 on LFA-1 [1] and on VLA-4 were 375 ± 204 nM and > 10000 nM, respectively. The compound further returned an inhibition at 1 µM on LFA-1 [2] of 93.6%. Moreover, on LFA-1 [3], the “mAb MEM148 binding, binding relative to solvent ctrl at 10 μM” value was 0.738.
The matching figures for `CC12C(=O)N(c3cc(Cl)cc(Cl)c3)C(=O)C1C2(c1ccc(C#N)cc1)c1ccc(OC(F)(F)F)cc1` (single isomer, unassigned) [4i/4′i diastereomer II (racemate), rac-4-[(1 S, 5S, 6S)- and rac-4-(1 S, 5S, 6R)-3-(3,5-Dichlorophenyl)-1-methyl-2,4-dioxo-6-[4-(trifluoro-methoxy)-phenyl]-3-azabicyclo[3.1.0]hexan-6-yl]benzonitrile]: 18 ± 14 nM, > 10000 nM, 98.6% and 0.937.
For `O=C1C2C(C(=O)N1c1cc(Cl)cc(Cl)c1)C2(c1ccncc1)c1ccc(OC(F)(F)F)cc1` (single isomer, unassigned) [4w or 4′w diastereomer II], the IC50 at LFA-1 [1] was > 1000 nM. In addition, the “mAb R7.1 binding % inhibition at 1 μM” value at LFA-1 [2] was 45.7%.
Regarding `O=C1C2C(C(=O)N1c1cc(Cl)cc(Cl)c1)C2(c1ccncc1)c1ccc(OC(F)(F)F)cc1` (single isomer, unassigned) [4w or 4′w diastereomer I], the values for the IC50 at LFA-1 [1] and at VLA-4 were 215 ± 134 nM and > 10000 nM, respectively. The “mAb R7.1 binding % inhibition at 1 μM” value at LFA-1 [2] was found to be 95.7%.
For `CC12C(=O)N(c3cc(Cl)cc(Cl)c3)C(=O)C1C2(c1ccncc1)c1ccc(OC(F)(F)F)cc1` (single isomer, unassigned) [4x or 4′x diastereomer I (racemate), rac-(1 S, 5S, 6R)- and rac-(1 S, 5S, 6S)-3-(3,5-Dichlorophenyl)-1-methyl-6-(pyridin-4-yl)-6-[4-(trifluoromethoxy)phenyl]-3-azabicyclo[3.1.0]hexane-2,4-dione], the IC50 at LFA-1 [1] was 202 nM and 286 nM; on VLA-4, > 10000 nM. Besides, the “mAb R7.1 binding % inhibition at 1 μM” value at LFA-1 [2] was found to be 98.4%.
With `CC12C(=O)N(c3cc(Cl)cc(Cl)c3)C(=O)C1C2(c1ccncc1)c1ccc(OC(F)(F)F)cc1` (single isomer, unassigned) [4x or 4′x diastereomer II (racemate), rac-(1 S, 5S, 6R)- and rac-(1 S, 5S, 6S)-3-(3,5-Dichlorophenyl)-1-methyl-6-(pyridin-4-yl)-6-[4-(trifluoromethoxy)phenyl]-3-azabicyclo[3.1.0]hexane-2,4-dione], the IC50 at LFA-1 [1] was > 1000 nM. On LFA-1 [2], the “mAb R7.1 binding % inhibition at 1 μM” value is 76.9%.
Take `O=C1[C@@H]2[C@H](C(=O)N1c1cc(Cl)cc(Cl)c1)C2(c1ccc(OC(F)(F)F)cc1)c1ccc(OC(F)(F)F)cc1` [Compound 4p, 3-(3,5-Dichlorophenyl)-6,6-bis[4-(trifluoromethoxy)phenyl]-3-azabicyclo[3.1.0.]hexane-2,4-dione]: the IC50 at LFA-1 [1] is > 1000 nM. For the same compound, on LFA-1 [2], the inhibition at 1 µM is 74.3%.
On to `N#Cc1ccc(C2(c3ccc(C#N)cc3)[C@@H]3C(=O)N(c4cc(Cl)cc(Cl)c4)C(=O)[C@@H]32)cc1` [Compound 4u, 4-[6-(4-Cyanophenyl)-3-(3,5-dichlorophenyl)-2,4-dioxo-3-azabicyclo[3.1.0]hexan-6-yl]benzonitrile], for which the IC50 at LFA-1 [1] was > 1000 nM. On LFA-1 [2], the inhibition at 1 µM was 87.1%.

The term IC50 denotes the concentration that gives 50% inhibition. Read a low IC50 as greater potency in that assay. The inhibition is the percentage by which the read-out fell short of the control. A high value points to a response far below the control.
